Our source for the IC50 values is US20260297070A1, “CYCLIC [COMPOUND LEFT OUT] WRN INHIBITORS” (Nimbus Wadjet, Inc., priority 2023, published 2026).

In the assay the target is T1, human Werner helicase (WRN-BV08, Uniprot Q14191, amino acids 517-1235 with L1074F point mutation) (Homo sapiens, UniProt Q14191, L1074F).
T1 construct: Uniprot Q14191, amino acids 517-1235 with L1074F point mutation; TEV-cleavable 8×His (C, cleaved yes); made in house; host or cells: Sf9 insect cells (baculovirus)
T1 sequence (Q14191 with tags, fused parts or gaps L1074F limits assumed): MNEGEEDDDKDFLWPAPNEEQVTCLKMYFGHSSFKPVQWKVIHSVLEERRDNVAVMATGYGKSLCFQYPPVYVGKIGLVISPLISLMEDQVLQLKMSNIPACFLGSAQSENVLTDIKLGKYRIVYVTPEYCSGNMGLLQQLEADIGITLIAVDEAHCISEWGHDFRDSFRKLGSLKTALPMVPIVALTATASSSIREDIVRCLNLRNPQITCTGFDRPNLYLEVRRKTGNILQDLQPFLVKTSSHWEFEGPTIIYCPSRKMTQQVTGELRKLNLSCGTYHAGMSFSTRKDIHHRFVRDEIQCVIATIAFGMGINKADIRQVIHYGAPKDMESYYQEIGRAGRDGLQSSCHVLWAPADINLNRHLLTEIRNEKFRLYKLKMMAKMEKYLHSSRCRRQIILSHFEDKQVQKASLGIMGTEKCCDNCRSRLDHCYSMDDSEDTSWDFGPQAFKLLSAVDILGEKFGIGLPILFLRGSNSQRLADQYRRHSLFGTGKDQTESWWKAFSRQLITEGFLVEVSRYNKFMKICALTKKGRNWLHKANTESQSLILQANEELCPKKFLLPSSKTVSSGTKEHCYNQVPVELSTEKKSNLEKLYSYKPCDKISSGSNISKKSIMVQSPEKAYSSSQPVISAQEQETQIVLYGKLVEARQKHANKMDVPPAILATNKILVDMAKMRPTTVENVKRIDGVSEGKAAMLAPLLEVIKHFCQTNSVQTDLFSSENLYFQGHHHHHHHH
In words: WRN (BV08) ADP-Glo Assay. The following applies: 0.15 nM WRN, 5 μM ATP, 0.1 nM DNA duplex, 15 min preincubation, 60 min at 25° C., pH 7.5, 1% DMSO; read-out: ADP-Glo_hWRN_IC50. It counts as biochemical. An excerpt: Example 2: WRN (BV08) ADP-Glo Assay Protocol
Bovine skin gelatin (BSG), dimethyl sulfoxide (DMSO), Pluronic F-127 and Tris(2-carboxyethyl)phosphine hydrochloride solution (TCEP) were purchased from Sigma-Aldrich at the highest level of purity possible. Bicine buffer solution was purchased from Alfa Aesar and compound NSC-617145 was purchased from Tocris. DNA duplex was synthesized at BGI (Shenzhen, China) and was composed of strand 1 with the sequence 5′-[…]-3′ (SEQ ID NO.: 1) and strand 2 with the sequence 5′-[…]-3′ (SEQ ID NO.: 2). DNA strands were annealed by heating to 95° C. for 5 minutes followed by slow cooling to room temperature. Compounds in 100% DMSO (0.1 μl) were spotted into a 384-well white polystyrene Optiplate-384 (Perkin Elmer) assay plate using a LabCyte Echo 550 (Agilent). DMSO (0.1 μl) was added to columns 12, rows A-H and column 24, rows I-P for the maximum signal control. Compound NSC-617145 (0.1 μl) was added to columns 12, rows I-P and 24, rows A-H for the minimum signal control (100% inhibition). Compounds/DMSO were preincubated for 15 minutes at 25° C. with 5 uL 2×WRN (BV08), prepared as described below, in assay buffer containing 20 mM Bicine (pH=7.5), 1 mM MgCl2, 10 mM KCl, 0.1% Pluronic F-127, 0.005% BSG, 1 mM TCEP. The reaction was initiated by the addition of 5 μl 2× substrate mixture in assay buffer and incubated for 60 minutes at 25° C. The final concentrations of the assay components were 0.15 nM WRN, 5 μM ATP, and 0.1 nM DNA duplex. The final DMSO concentration was 1% and the reference compound concentration (NSC-617145) used for the minimal signal control was 20 μM. The reaction was stopped by the addition of the ADP-Glo Kit components (Promega) as directed and the relative luminescence units (RLU) were read on an Envision 2104 (Perkin Elmer).
% Inhibition Calculation:
Where RLU=relative luminescence units, sample=signal in sample well, and MIN and MAX are the respective minimum and maximum signal controls.
Four-Parameter IC50 Fit Equation:
Where top and bottom are normally allowed to float but may be fixed at 100 or 0 respectively in a 3-parameter fit. Y is the % inhibition and X is the compound concentration.
Molecular Biology and virus production. The DNA encoding human Werner helicase (Uniprot Q14191, amino acids 517-1235 with L1074F point mutation) was generated with codon-optimization for E. coli expression and subcloned into the pFastBac vector with a TEV cleavable 8×His tag (WRN-BV08). The baculovirus from the expression plasmid WRN-BV08 was generated from transfection and amplification following the manufacturer's instructions.
Sf9 cells grown in SF900II media were infected with 1:200 WRN-BV08 P2 virus and incubated for protein expression for 72 h at 27° C. The WRN protein was purified using the following protocol. The cell pellets were thawed and resuspended in buffer A (50 mM Tris, pH 7.5, 500 mM NaCl, 1 mM TCEP, 10% Glycerol) supplemented with 0.5% CHAPS, 1 mM [COMPOUND LEFT OUT], 1 μg/mL Leupeptin, 1 μg/mL Pepstatin, and the Pierce Universal Nuclease and cocktail tablet. Cleared lysates were loaded onto a Ni Sepharose™ excel column and washed with buffer A and bound protein was eluted with buffer A supplemented with 300 mM imidazole. The eluted protein was dialyzed against buffer A and digested by His-tagged TEV (1:5 ratio) overnight at 4° C. ZnCl2 was added into the sample at final 15 μM before loading onto a second Ni Sepharose™ excel column. Untagged WRN protein was eluted from the column with buffer A supplemented with 20 mM imidazole, dialyzed overnight into buffer B (50 mM Tris, pH 7.5, 1 mM TCEP, 10% Glycerol) supplemented with 150 mM NaCl and loaded onto a Heparin column. Proteins were eluted with a step gradient of buffer B supplemented with 150 mM, 200 mM, 300 mM and 500 mM NaCl. […]
For the molecule `CC(C)(O)c1cc(CN(C(=O)Cn2cc(-c3ccc(Cl)cc3)cn2)C2C=CS(=O)(=O)C2)ccn1` (stereo not drawn) [I-58, 2-[4-(4-chlorophenyl)-1H-pyrazol-1-yl]-N-(1,1-dioxo-2,3-dihydro-1lambda6-thiophen-3-yl)-N-{[2-(2-hydroxypropan-2-yl)pyridin-4-yl]methyl}acetamide], the IC50 was under 0.5 µM.

Regarding `O=C(Cn1cc(-c2ccc(F)cc2)cn1)N(Cc1ccnc(OC(F)(F)F)c1)C1C=CS(=O)(=O)C1` (stereo not drawn) [I-753, N-(1,1-dioxo-2,3-dihydro-1lambda6-thiophen-3-yl)-2-[4-(4-fluorophenyl)-1H-pyrazol-1-yl]-N-{[2-(trifluoromethoxy)pyridin-4-yl]methyl}acetamide], the IC50 lay within 0.5 to 5 µM.

Turning to `COc1cc(CN(C(=O)CCc2ccc(S(F)(F)(F)(F)F)cc2)C2C=CS(=O)(=O)C2)ccn1` (stereo not drawn) [I-343, N-(1,1-dioxo-2,3-dihydro-1lambda6-thiophen-3-yl)-N-[(2-methoxypyridin-4-yl)methyl]-3-[4-(pentafluoro-lambda6-sulfanyl)phenyl]propanamide], the IC50 was in the range of 10 to 50 µM.

Consider `COc1cc(CN(C(=O)Cn2ncc3cc(OC(F)(F)F)ccc32)[C@@H]2C=CS(=O)(=O)C2)ccn1` [I-721, N-[(3R)-1,1-dioxo-2,3-dihydro-1lambda6-thiophen-3-yl]-N-[(2-methoxypyridin-4-yl)methyl]-2-[5-(trifluoromethoxy)-1H-indazol-1-yl]acetamide], for which the IC50 fell in the range of 0.5 to 5 µM.

In the case of `CN(C)C(=O)C(C(=O)N(Cc1nc(C2CC2)cs1)C1C=CS(=O)(=O)C1)c1ccc(-c2ccc(F)cc2)cc1F` (stereo not drawn) [I-23, N′-[(4-cyclopropyl-1,3-thiazol-2-yl)methyl]-2-{3,4′-difluoro-[1,1′-biphenyl]-4-yl}-N′-(1,1-dioxo-2,3-dihydro-1lambda6-thiophen-3-yl)-N,N-dimethylpropanediamide], the IC50 was under 0.5 µM.

On to `O=C(Cn1cc(-c2ccc(F)cc2)cn1)N(Cc1ccnc(OC(F)F)c1)C1C=CS(=O)(=O)C1` (stereo not drawn) [I-662, N-{[2-(difluoromethoxy)pyridin-4-yl]methyl}-N-(1,1-dioxo-2,3-dihydro-1lambda6-thiophen-3-yl)-2-[4-(4-fluorophenyl)-1H-pyrazol-1-yl]acetamide], for which the IC50 was under 0.5 µM.

As for `O=C(C1CC(c2ccncc2)=NO1)N(Cc1ccncc1)C1C=CS(=O)(=O)C1` (stereo not drawn) [I-621, N-(1,1-dioxo-2,3-dihydro-1lambda6-thiophen-3-yl)-3-(pyridin-4-yl)-N-[(pyridin-4-yl)methyl]-4,5-dihydro-1,2-oxazole-5-carboxamide], the IC50 is over 50 µM.

Consider `CC(C)(O)c1csc(CN(C(=O)Cc2ccc(S(F)(F)(F)(F)F)cc2)C2C=CS(=O)(=O)C2)n1` (single isomer, unassigned) [I-708], for which the IC50 fell in the range of 5 to 10 µM.

Regarding `CC(C)(O)c1cc(CN(C(=O)C2CNc3cc(-c4ccc(F)cc4)ccc32)C2C=CS(=O)(=O)C2)ccn1` (stereo not drawn) [I-98, N-(1,1-dioxo-2,3-dihydro-1lambda6-thiophen-3-yl)-6-(4-fluorophenyl)-N-{[2-(2-hydroxypropan-2-yl)pyridin-4-yl]methyl}-2,3-dihydro-1H-indole-3-carboxamide], the IC50 is 0.5 to 5 µM.

`CN(C)C(=O)OC(C(=O)N(Cc1ccnc(C(C)(C)O)c1)[C@@H]1C=CS(=O)(=O)C1)c1ccc(-c2ccc(F)c(F)c2)cc1F` (single isomer, unassigned) [I-636]: the IC50 fell in the range of 10 to 50 µM.

As to `Cn1cc2cc(CC(=O)N(Cc3ccncc3)C3C=CS(=O)(=O)C3)ccc2n1` (stereo not drawn) [I-656, N-(1,1-dioxo-2,3-dihydro-1lambda6-thiophen-3-yl)-2-(2-methyl-2H-indazol-5-yl)-N-[(pyridin-4-yl)methyl]acetamide], the IC50 is over 50 µM.

For `COc1cc(CN(C(=O)C(OC)c2ccc(-c3ccc(F)cc3)cc2F)C2C=CS(=O)(=O)C2)ccn1` (single isomer, unassigned) [I-366, (2R*)-2-{3,4′-difluoro-[1,1′-biphenyl]-4-yl}-N-[(3R**)-1,1-dioxo-2,3-dihydro-1lambda6-thiophen-3-yl]-2-methoxy-N-[(2-methoxypyridin-4-yl)methyl]acetamide], the IC50 was over 50 µM.
